Test results as given in ChEMBL document CHEMBL1201862, “PubChem BioAssay data set” (2004).
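Where inhibition never reached the appropriate level, the endpoint shown equals the highest concentration tested. Otherwise, values were interpolated linearly from a five-concentration, 48-hour dose response in 96-well plates. Abbreviation: GI50, concentration required for 50% inhibition of growth.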 The source made the active and inactive calls. Cut-off read from the data, not from the text of the source: active = GI50 up to about 1.1 µM and inactive = higher.

Assays:
Experiment in all cases: DTP human tumour cell line panel, 48 h
MDA-MB-231 = system: MDA-MB-231
MCF7 = system: MCF7
A498 = system: A498
Malme-3M = system: Malme-3M
TK-10 = system: TK-10
SW-620 = system: SW-620
EKVX = system: EKVX
U-251 = system: U-251
SR = system: SR
UACC-257 = system: UACC-257
PC-3 = system: PC-3
SNB-75 = system: SNB-75
SK-MEL-28 = system: SK-MEL-28
HCT-15 = system: HCT-15
MOLT-4 = system: MOLT-4
HCT-116 = system: HCT-116
NCI-H226 = system: NCI-H226
OVCAR-4 = system: OVCAR-4
COLO 205 = system: COLO 205
SK-MEL-5 = system: SK-MEL-5
SK-OV-3 = system: SK-OV-3
CAKI-1 = system: CAKI-1
RXF 393 = system: RXF 393
RPMI-8226 = system: RPMI-8226
MDA-MB-435 = system: MDA-MB-435
HOP-62 = system: HOP-62
K562 = system: K562
UO-31 = system: UO-31
Hs-578T = system: Hs-578T
UACC-62 = system: UACC-62
HT-29 = system: HT-29
SNB-19 = system: SNB-19
OVCAR-8 = system: OVCAR-8
SF-268 = system: SF-268
CCRF-CEM = system: CCRF-CEM
NCI-H460 = system: NCI-H460
SF-539 = system: SF-539
OVCAR-3 = system: OVCAR-3
HCC 2998 = system: HCC 2998
NCI-H23 = system: NCI-H23
MDA-N = system: MDA-N
NCI-H522 = system: NCI-H522
A549 = system: A549
IGROV-1 = system: IGROV-1
HOP-92 = system: HOP-92
HL-60 = system: HL-60
T47D = system: T47D
KM12 = system: KM12
SF-295 = system: SF-295
SK-MEL-2 = system: SK-MEL-2
LOX IMVI = system: LOX IMVI
NCI/ADR-RES = system: NCI/ADR-RES
786-0 = system: 786-0
OVCAR-5 = system: OVCAR-5
ACHN = system: ACHN
SN12C = system: SN12C
M14 = system: M14
BT-549 = system: BT-549
DU-145 = system: DU-145

Compound: CCC/C(Cl)=N/OC(=O)Nc1cc(C(F)(F)F)ccc1OC
- GI50 (MDA-MB-231): 13.1 µM (inactive)
- GI50 (MCF7): 12.4 µM (inactive)
- GI50 (A498): 15.1 µM (inactive)
- GI50 (Malme-3M): 2.92 µM (inactive)
- GI50 (TK-10): 18.5 µM (inactive)
- GI50 (SW-620): 3.55 µM (inactive)
- GI50 (EKVX): 7.24 µM (inactive)
- GI50 (U-251): 17.7 µM (inactive)
- GI50 (SR): 2.79 µM (inactive)
- GI50 (UACC-257): 16.5 µM (inactive)
- GI50 (PC-3): 16.2 µM (inactive)
- GI50 (SNB-75): 15.1 µM (inactive)
- GI50 (SK-MEL-28): 14.5 µM (inactive)
- GI50 (HCT-15): 5.31 µM
- GI50 (MOLT-4): 2.1 µM (inactive)
- GI50 (HCT-116): 9.89 µM (inactive)
- GI50 (NCI-H226): 15.5 µM (inactive)
- GI50 (OVCAR-4): 3.23 µM (inactive)
- GI50 (COLO 205): 1.95 µM (inactive)
- GI50 (SK-MEL-5): 7.93 µM (inactive)
- GI50 (SK-OV-3): 6.17 µM (inactive)
- GI50 (CAKI-1): 4.78 µM (inactive)
- GI50 (RXF 393): 6.31 µM (inactive)
- GI50 (RPMI-8226): 2.33 µM (inactive)
- GI50 (MDA-MB-435): 13.4 µM (inactive)
- GI50 (HOP-62): 18.1 µM (inactive)
- GI50 (K562): 1.79 µM (inactive)
- GI50 (UO-31): 16.4 µM (inactive)
- GI50 (Hs-578T): 27.1 µM (inactive)
- GI50 (UACC-62): 15.2 µM (inactive)
- GI50 (HT-29): 20.7 µM (inactive)
- GI50 (SNB-19): 17.6 µM (inactive)
- GI50 (OVCAR-8): 16.1 µM (inactive)
- GI50 (SF-268): 16.1 µM (inactive)
- GI50 (CCRF-CEM): 1.91 µM (inactive)
- GI50 (NCI-H460): 19.5 µM (inactive)
- GI50 (SF-539): 15.3 µM (inactive)
- GI50 (OVCAR-3): 16.4 µM (inactive)
- GI50 (HCC 2998): 16.9 µM (inactive)
- GI50 (NCI-H23): 18.7 µM (inactive)
- GI50 (MDA-N): 12.1 µM (inactive)
- GI50 (NCI-H522): 1.56 µM (inactive)
- GI50 (A549): 19.5 µM (inactive)
- GI50 (IGROV-1): 16.6 µM (inactive)
- GI50 (HOP-92): 2.43 µM (inactive)
- GI50 (HL-60): 1.77 µM (inactive)
- GI50 (T47D): 6.44 µM (inactive)
- GI50 (KM12): 18.1 µM (inactive)
- GI50 (SF-295): 18.3 µM (inactive)
- GI50 (SK-MEL-2): 16.1 µM (inactive)
- GI50 (LOX IMVI): 4.46 µM (inactive)
- GI50 (NCI/ADR-RES): 17.5 µM (inactive)
- GI50 (786-0): 6.05 µM (inactive)
- GI50 (OVCAR-5): 17.6 µM (inactive)
- GI50 (ACHN): 13.2 µM (inactive)
- GI50 (SN12C): 14.3 µM (inactive)
- GI50 (M14): 4.4 µM (inactive)
- GI50 (BT-549): 15.5 µM (inactive)
- GI50 (DU-145): 16.3 µM (inactive)

Compound: CC(NNC(=O)c1ccncc1)c1ccc(Cl)c(Cl)c1 (stereo not drawn)
- GI50 (MDA-MB-231): > 100 µM (inactive)
- GI50 (MCF7): > 100 µM (inactive)
- GI50 (A498): 69.3 µM (inactive)
- GI50 (Malme-3M): > 100 µM (inactive)
- GI50 (TK-10): > 100 µM (inactive)
- GI50 (SW-620): > 100 µM (inactive)
- GI50 (EKVX): > 100 µM (inactive)
- GI50 (U-251): > 100 µM (inactive)
- GI50 (SR): 60.8 µM (inactive)
- GI50 (UACC-257): > 100 µM (inactive)
- GI50 (PC-3): 71.3 µM (inactive)
- GI50 (SNB-75): > 100 µM (inactive)
- GI50 (SK-MEL-28): > 100 µM (inactive)
- GI50 (HCT-15): > 100 µM
- GI50 (MOLT-4): 48.9 µM (inactive)
- GI50 (HCT-116): > 100 µM (inactive)
- GI50 (NCI-H226): > 100 µM (inactive)
- GI50 (OVCAR-4): > 100 µM (inactive)
- GI50 (COLO 205): > 100 µM (inactive)
- GI50 (SK-MEL-5): > 100 µM (inactive)
- GI50 (SK-OV-3): 19.6 µM (inactive)
- GI50 (CAKI-1): > 100 µM (inactive)
- GI50 (RXF 393): > 100 µM (inactive)
- GI50 (RPMI-8226): 75.5 µM (inactive)
- GI50 (MDA-MB-435): > 100 µM (inactive)
- GI50 (HOP-62): > 100 µM (inactive)
- GI50 (K562): 38.4 µM (inactive)
- GI50 (UO-31): 54.6 µM (inactive)
- GI50 (Hs-578T): 86.9 µM (inactive)
- GI50 (UACC-62): > 100 µM (inactive)
- GI50 (HT-29): > 100 µM (inactive)
- GI50 (SNB-19): > 100 µM (inactive)
- GI50 (OVCAR-8): > 100 µM (inactive)
- GI50 (SF-268): > 100 µM (inactive)
- GI50 (CCRF-CEM): 43.4 µM (inactive)
- GI50 (NCI-H460): > 100 µM (inactive)
- GI50 (SF-539): > 100 µM (inactive)
- GI50 (OVCAR-3): > 100 µM (inactive)
- GI50 (HCC 2998): > 100 µM (inactive)
- GI50 (NCI-H23): 57.7 µM (inactive)
- GI50 (MDA-N): 95.3 µM (inactive)
- GI50 (NCI-H522): > 100 µM (inactive)
- GI50 (A549): > 100 µM (inactive)
- GI50 (IGROV-1): > 100 µM (inactive)
- GI50 (HOP-92): > 100 µM (inactive)
- GI50 (HL-60): 34.8 µM (inactive)
- GI50 (T47D): 66.4 µM (inactive)
- GI50 (KM12): > 100 µM (inactive)
- GI50 (SF-295): > 100 µM (inactive)
- GI50 (SK-MEL-2): > 100 µM (inactive)
- GI50 (LOX IMVI): > 100 µM (inactive)
- GI50 (NCI/ADR-RES): > 100 µM (inactive)
- GI50 (786-0): > 100 µM (inactive)
- GI50 (OVCAR-5): > 100 µM (inactive)
- GI50 (ACHN): > 100 µM (inactive)
- GI50 (SN12C): > 100 µM (inactive)
- GI50 (M14): 67.9 µM (inactive)
- GI50 (BT-549): > 100 µM (inactive)
- GI50 (DU-145): > 100 µM (inactive)
